One assay concerns dicotyledonous species. Nature of the assay: Greenhouse post-emergence test in combination with glyphosate, dicotyledonous species. In kind it is in vivo. The settings on record: glyphosate isopropylammonium salt alone at 1000 g a.e./ha. An excerpt: (§1) A pre-prepared topsoil mixture (described above) was placed in a pot and compacted to a depth of 1.0 to 1.25 cm from the top of the pot. Seeds of each of several monocotyledonous and dicotyledonous annual plant species were placed on top of the soil The seeds were covered with a mixture of 50% topsoil and 50% Rediearth™ in sufficient quantity to level-fill the pots. The pots were then placed on a greenhouse bench and subirrigated as needed until plants growing from the seeds had emerged and reached a suitable growth stage for post-emergence treatment, typically 9 to 14 days after planting.
(§2) A known amount of each test compound dissolved or suspended in an appropriate organic solvent was diluted with a 50:50 mix of acetone and water and applied to the plants by spraying with a standard spray nozzle in a spray volume of 3,100 l/ha at a spray pressure of […] (30 psig). Control plants were not sprayed.
(§3) After treatment the plants were placed in a greenhouse with a 30/21° C. day/night temperature regime and were subsequently watered as needed for growth. Approximately 14 days after treatment, the plants were observed and herbicidal efficacy recorded as percent inhibition by comparison with control plants.
(§4) In a greenhouse post-emergence test conducted according to the procedure described hereinabove, R-2-fluoro-3-trifluoromethyl-N-[1-methyl-2-(3-trifluoromethyl)phenylcarbonylamino]ethylbenzamide (the compound of Example 13) was applied at 0, 64, 125 and 250 g/ha in combination with glyphosate isopropylammonium salt at 1000 g a.e./ha. The glyphosate herbicide alone gave 72% control of dicotyledonous species and 84% control of monocotyledonous species. […] At 250 g/ha, addition of the compound of Example 13 gave 93% control of dicotyledonous species, but reduced control of monocotyledonous species to 73%.

Another assay has as its system monocotyledonous species. Nature of the assay: Greenhouse post-emergence test in combination with glyphosate, monocotyledonous species. In kind it is in vivo. The settings on record: glyphosate isopropylammonium salt alone at 1000 g a.e./ha.
Source text: as §1, §2, §3, §4

Here are results for one substance from patent US20020052295A1, “Diacyl derivatives of propylene diamine having herbicidal activity” (priority 1999, published 2002).

In the case of “glyphosate isopropylammonium salt [reference compound]”, the “control of dicotyledonous species” value with dicotyledonous species worked out at 72%. Also, the “control of monocotyledonous species” value in the assay on monocotyledonous species was found to be 84%.
